Results from ChEMBL document CHEMBL1201862, “PubChem BioAssay data set” (2004).
Activity calls are given as the source filed them.

Columns and labels:
[1] = biological target: Voltage-dependent T-type calcium channel subunit alpha-1H (Homo sapiens, UniProt O95180); type: functional;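 note: channel activity triggered by adding a high calcium stimulation buffer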
[2] = HEK293 cell cytotoxicity, dose response, cytotoxicity control, plate reader, cherry-picked samples (AID 743446); type: functional, cell-based
[3] = MC4R antagonists, dose response, counter-screen for LGR2 antagonist project, cell-based, plate reader, cherry pick (AID 743444); type: functional;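 note: transfected HEK 293 cells stimulated with alpha-MSH peptide; potency of inhibitors of the alpha-MSH evoked signal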
[4] = LGR2 antagonists, dose response, cell-based, HEK293, CRE-luciferase reporter, cherry pick, set 2 (AID 743343); type: functional;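 note: transfected cells were stimulated with diluted bursicon conditioned medium after compound addition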
H9c2 = assay: cells; type: functional, cell-based; details: Rattus norvegicus, H9c2, Myocardium;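 note: confirmatory concentration-response retest of ultra-high-throughput screening hits for modulation of myocardial damage; cell death induced by hydrogen peroxide oxidative stress; compound pretreatment for 60 min then peroxide exposure for 2 h; potency is for protecting the cells against peroxide damage rather than for killing them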
[5] = A549 cell cytotoxicity, dose response, cytotoxicity control, plate reader, cherry-pick, antagonist series (AID 743412); type: functional, cell-based
P388 = assay: cells; type: functional; details: Mus musculus
SN12K1 = assay: cells; type: functional; details: Homo sapiens
P388/ADR = assay: cells; type: functional; details: Mus musculus
[6] = biological target: Heat shock protein HSP 90-alpha (Homo sapiens, UniProt P07900); type: functional, organism-based
[7] = Luminescence Cell-Based Dose Confirmation HTS to Identify Activators of 5'UTR Stem-Loop Driven Alpha-Synuclein mRNA Translation in H4 Neuroglioblastoma Cells. [Related pubchem assays: 1829 (Project Summary), 1814 (Primary HTS)]; type: functional
[8] = Luminescence Cell-Based Dose Response HTS to Identify Activators of Luciferase Translation or Activity in H4 […] Cells. [Related pubchem assays: 1829 (Project Summary), 1814 (Primary HTS)]; type: functional
H4 = assay: Luminescence Cell-Based Dose Response HTS to Identify Activators of 5'UTR Stem-Loop Driven Prion Protein mRNA Translation in H4 Neuroglioblastoma Cells. [Related pubchem assays: 1829 (Project Summary), 1814 (Primary HTS)]; type: functional; details: Homo sapiens
[9] = biological target: T1, Adenosylmethionine-8-amino-7-oxononanoate aminotransferase (Mycobacterium tuberculosis, UniProt P9WQ81); assay: Mycobacterium tuberculosis BioA enzyme inhibitor Measured in Biochemical System Using Plate Reader - 2163-02_Inhibitor_Dose_CherryPick_Activity.; type: functional, Mycobacterium tuberculosis UT205
T1 sequence (P9WQ81 whole entry): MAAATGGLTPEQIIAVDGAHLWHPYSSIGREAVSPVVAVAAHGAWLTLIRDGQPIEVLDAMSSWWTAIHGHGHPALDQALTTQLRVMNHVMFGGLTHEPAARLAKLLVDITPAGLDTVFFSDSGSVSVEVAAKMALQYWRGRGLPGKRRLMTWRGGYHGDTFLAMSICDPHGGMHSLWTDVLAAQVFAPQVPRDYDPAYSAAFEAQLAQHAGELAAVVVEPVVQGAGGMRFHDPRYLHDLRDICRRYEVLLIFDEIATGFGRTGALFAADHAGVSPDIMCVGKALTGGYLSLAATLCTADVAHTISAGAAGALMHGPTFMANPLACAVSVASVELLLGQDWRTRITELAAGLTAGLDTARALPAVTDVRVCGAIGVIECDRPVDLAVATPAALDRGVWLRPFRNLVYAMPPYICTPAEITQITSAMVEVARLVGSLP

Sequence of Voltage-dependent T-type calcium channel subunit alpha-1H (O95180 whole entry): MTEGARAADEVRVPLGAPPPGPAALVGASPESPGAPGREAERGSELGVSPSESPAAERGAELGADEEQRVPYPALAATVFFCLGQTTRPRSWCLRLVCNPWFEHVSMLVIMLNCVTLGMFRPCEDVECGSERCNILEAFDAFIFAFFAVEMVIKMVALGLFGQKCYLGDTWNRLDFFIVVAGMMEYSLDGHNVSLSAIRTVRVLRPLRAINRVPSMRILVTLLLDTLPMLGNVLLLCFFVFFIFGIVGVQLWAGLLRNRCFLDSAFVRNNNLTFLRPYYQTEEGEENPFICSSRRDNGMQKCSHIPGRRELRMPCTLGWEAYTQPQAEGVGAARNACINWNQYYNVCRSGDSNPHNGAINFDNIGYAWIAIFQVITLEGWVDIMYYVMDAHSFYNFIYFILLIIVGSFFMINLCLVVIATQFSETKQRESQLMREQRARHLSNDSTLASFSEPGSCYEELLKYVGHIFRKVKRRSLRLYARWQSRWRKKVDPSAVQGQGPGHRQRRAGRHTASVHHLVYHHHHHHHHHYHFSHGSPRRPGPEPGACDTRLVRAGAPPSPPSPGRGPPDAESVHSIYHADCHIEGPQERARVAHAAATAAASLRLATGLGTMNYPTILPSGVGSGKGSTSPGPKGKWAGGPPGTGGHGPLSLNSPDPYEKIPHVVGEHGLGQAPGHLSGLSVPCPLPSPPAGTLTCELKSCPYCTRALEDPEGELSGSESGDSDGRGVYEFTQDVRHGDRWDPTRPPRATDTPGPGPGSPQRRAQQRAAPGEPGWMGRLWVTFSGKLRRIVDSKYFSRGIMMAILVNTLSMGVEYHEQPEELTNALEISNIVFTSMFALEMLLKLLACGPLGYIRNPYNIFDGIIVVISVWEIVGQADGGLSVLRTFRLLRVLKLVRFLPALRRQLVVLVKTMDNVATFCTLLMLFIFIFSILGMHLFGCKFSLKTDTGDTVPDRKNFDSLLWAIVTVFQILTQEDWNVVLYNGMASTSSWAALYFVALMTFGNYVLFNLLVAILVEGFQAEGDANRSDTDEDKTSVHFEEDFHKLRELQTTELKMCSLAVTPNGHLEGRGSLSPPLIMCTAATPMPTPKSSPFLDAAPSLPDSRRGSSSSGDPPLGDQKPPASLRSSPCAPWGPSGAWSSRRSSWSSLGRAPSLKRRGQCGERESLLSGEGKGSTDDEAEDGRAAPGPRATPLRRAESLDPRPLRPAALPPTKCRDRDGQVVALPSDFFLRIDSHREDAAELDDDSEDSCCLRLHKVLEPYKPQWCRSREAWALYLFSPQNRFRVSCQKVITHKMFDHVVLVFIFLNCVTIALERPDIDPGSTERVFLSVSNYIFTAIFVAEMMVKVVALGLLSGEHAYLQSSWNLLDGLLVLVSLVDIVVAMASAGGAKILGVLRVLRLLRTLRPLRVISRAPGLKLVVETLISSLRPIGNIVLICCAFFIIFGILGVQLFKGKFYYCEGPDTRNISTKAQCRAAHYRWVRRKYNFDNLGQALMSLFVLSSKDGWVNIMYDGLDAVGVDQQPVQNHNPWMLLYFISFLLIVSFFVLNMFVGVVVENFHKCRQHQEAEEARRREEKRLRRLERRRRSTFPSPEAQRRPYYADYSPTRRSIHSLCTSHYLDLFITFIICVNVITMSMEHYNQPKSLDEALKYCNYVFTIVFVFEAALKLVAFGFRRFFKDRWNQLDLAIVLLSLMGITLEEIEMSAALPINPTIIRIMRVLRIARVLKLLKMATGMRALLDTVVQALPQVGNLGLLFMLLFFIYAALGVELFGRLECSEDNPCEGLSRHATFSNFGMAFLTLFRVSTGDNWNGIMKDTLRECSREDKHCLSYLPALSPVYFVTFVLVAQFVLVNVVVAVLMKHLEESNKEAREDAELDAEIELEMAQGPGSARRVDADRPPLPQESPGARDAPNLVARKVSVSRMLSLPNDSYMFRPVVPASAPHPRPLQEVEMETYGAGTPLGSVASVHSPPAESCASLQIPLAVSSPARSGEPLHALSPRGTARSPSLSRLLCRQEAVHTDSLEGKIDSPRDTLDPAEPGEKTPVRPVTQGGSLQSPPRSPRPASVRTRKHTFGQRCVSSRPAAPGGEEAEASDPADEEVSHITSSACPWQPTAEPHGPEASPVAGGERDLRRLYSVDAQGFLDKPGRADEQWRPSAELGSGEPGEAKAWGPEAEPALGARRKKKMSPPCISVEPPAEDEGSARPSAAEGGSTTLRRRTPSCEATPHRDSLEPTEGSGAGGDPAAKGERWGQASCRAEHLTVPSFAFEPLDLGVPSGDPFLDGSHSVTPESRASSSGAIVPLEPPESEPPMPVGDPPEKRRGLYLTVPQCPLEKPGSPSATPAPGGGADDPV

SMILES: CC1CC(C)CN(C(=O)CSc2nnc(-c3ccc(Cl)s3)o2)C1 (stereo unspecified)
- EC50 [1]: 10.8 µM (active)

SMILES: CCOc1ccc(-n2cc(-c3ccccc3)c3c(N4CCOCC4)ncnc32)cc1
- AC50 [2]: > 52 µM (inactive)
- AC50 [3]: 47.3 µM (active)
- AC50 [4]: 56.7 µM (active)
- IC50 (H9c2): > 79 µM (inactive)
- AC50 [5]: 36.1 µM (active)

SMILES: CN1CCN(c2ccc(Cl)cc2NC(=O)C2COc3ccccc3O2)CC1 (stereo unspecified)
- EC50 [1]: 8.08 µM (active)

SMILES: O=C1CCC23CC(C=CC=C12)n1c(=O)n(-c2ccccc2)c(=O)n13 (stereo unspecified)
- GI50 (P388): 49.9 µM (inactive)
- GI50 (SN12K1): > 100 µM (inactive)
- GI50 (P388/ADR): 31 µM (inactive)

SMILES: CCc1nnc(NC(=O)CC(CN(C)S(=O)(=O)c2ccccc2)c2ccccc2)s1 (stereo unspecified)
- EC50 [1]: 2.4 µM (active)

SMILES: O=C1CC(N2CCCCCC2)C(=O)N1c1ccc2c(c1)OCO2 (stereo unspecified)
- AC50 [6]: 4.79 µM (active)

SMILES: COc1cc2c(c(OC)c1OC)C(=O)NCCC2
- GI50 (P388): > 100 µM (inactive)
- GI50 (SN12K1): > 100 µM (inactive)
- GI50 (P388/ADR): > 100 µM (inactive)

SMILES: O=C(NC(=S)NC1CCCCCC1)c1cncc(Br)c1
- EC50 [7]: 39.6 µM (active)
- EC50 [8]: 76.3 µM (active)
- EC50 (H4): 7.48 µM (active)

SMILES: O=C(CSc1nc2c(c(=O)n1-c1ccc(Cl)cc1)SCC2)N1CCOCC1
- AC50 [9]: 6.81 µM (active)

SMILES: Nn1c(SC/C=C/c2ccccc2)nnc1-c1cccnc1
- AC50 [9]: 0.311 µM (active)

SMILES: CC1CCC2(CC1)NC(=O)N(NC(=O)CCl)C2=O (stereo unspecified)
- EC50 [7]: 34.7 µM (active)
- EC50 [8]: > 120 µM (not active)
- EC50 (H4): > 120 µM (not active)

SMILES: COc1ccc(-c2nc3ccc([N+](=O)[O-])cc3c(=O)[nH]2)cc1
- GI50 (P388): > 100 µM (inactive)
- GI50 (SN12K1): 26 µM (inactive)
- GI50 (P388/ADR): > 100 µM (inactive)
